Data as given in patent US20080176866A1, “NOVEL HETARYL-PHENYLENEDIAMINE-PYRIMIDINES AS PROTEIN KINASE INHIBITORS” (priority 2006, published 2008).

Legend:
[1] = biological target: T1, human Aurora-C (Homo sapiens, UniProt Q9UQB9); assay: Aurora-C kinase assay (HTRF); assay type: biochemical; conditions: GST-human Aurora-C, 10 μM ATP
T1 construct: GST; made in house; host or cells: transiently transfected HEK293 cells
T1 sequence (Q9UQB9 1-309): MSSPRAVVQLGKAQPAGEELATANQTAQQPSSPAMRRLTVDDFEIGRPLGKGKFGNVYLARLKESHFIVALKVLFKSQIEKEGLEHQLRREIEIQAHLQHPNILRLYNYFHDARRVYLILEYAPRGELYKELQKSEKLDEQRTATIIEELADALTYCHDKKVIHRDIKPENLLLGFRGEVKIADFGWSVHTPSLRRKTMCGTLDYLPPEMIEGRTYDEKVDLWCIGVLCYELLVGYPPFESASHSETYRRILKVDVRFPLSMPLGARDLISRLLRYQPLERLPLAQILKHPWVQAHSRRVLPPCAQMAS
Method: The Aurora-C inhibitory activity of the substances of this invention was measured in the Aurora-C-HTRF assay (HTRF=Homogeneous Time Resolved Fluorescence) described in the following paragraphs.
Recombinant fusion protein of GST and human Aurora-C was expressed in transiently transfected HEK293 cells and purified by affinity chromatography on glutathione-Sepharose. The substrate used for the kinase reaction was the biotinylated peptide biotin-Ttds-FMRLRRLSTKYRT (C terminus in amide form) which can be purchased for example from JERINI Peptide Technologies (Berlin). Aurora-C was incubated in the presence of various concentrations of test substances in 5 μL of assay buffer [25 mM Hepes/NaOH pH 7.4, 0.5 mM MnCl2, 2.0 mM dithiothreitol, 0.1 mM sodium orthovanadate, 10 μM adenosine triphosphate (ATP), […] substrate, 0.01% (v/v) TritonX-100 (Sigma), 0.05% (w/v) bovine serum albumin (BSA), 1% (v/v) dimethyl sulphoxide] at 22° C. for 60 min. The concentration of Aurora-C was adapted to the particular activity of the enzyme and adjusted so that the assay operated in the linear range. Typical concentrations were in the region of 0.3 nM. The reaction was stopped by adding 5 μl of a solution of HTRF detection reagents (0.2 μM streptavidin-XLent and 1.4 nM anti-phospho-(Ser/Thr)-Akt substrate-Eu-cryptate (C is biointernational, France, product No. 61P02KAE), a Europium-cryptate-labelled phospho-(Ser/Thr)-Akt substrate antibody [product #9611B, Cell Signaling Technology, Danvers, Mass., USA]) in aqueous EDTA solution (40 mM EDTA, 400 mM KF, 0.05% (w/v) bovine serum albumin (BSA) in 25 mM HEPES/NaOH pH 7.0).
The resulting mixture was incubated at 22° C. for 1 h in order to allow formation of a complex of the biotinylated phosphorylated substrate and the detection reagents. The amount of phosphorylated substrate was then estimated by measuring the resonance energy transfer from the anti-phospho-(Ser/Thr)-Akt substrate-Eu cryptate to the streptavidin-XLent. For this purpose, the fluorescence emissions at 620 nm and 665 nm after excitation at 350 nm were measured in an HTRF measuring instrument, e.g. a Rubystar (BMG Labtechnologies, Offenburg, Germany) or a Viewlux (Perkin-Elmer). The ratio of the emissions at 665 nm and at 622 nm was taken as a measure of the amount of phosphorylated substrate. The data were normalized (enzymic reaction without inhibitor=0% inhibition, all other assay components but no enzyme=100% inhibition) and IC50 values were calculated with a 4-parameter fit using an inhouse software.

[2] = system: human MCF7 breast tumour cells; assay: MCF7 proliferation assay; assay type: cell-based; conditions: 96 h, 4 days incubation, crystal violet staining
Method: Cultivated human MCF7 breast tumour cells (ATCC HTB-22) were plated out in a density of 5000 cells/measurement point in 200 μl of growth medium (RPMI1640, 10% foetal calf serum, 2 mU/mL insulin, 0.1 nM oestradiol) in a 96-well multititre plate. After 24 hours, the cells from a plate (zero plate) were stained with crystal violet (see below), while the medium in the other plates was replaced by fresh culture medium (200 μl) to which the test substances had been added in various concentrations (0 μM, and in the range 0.01-30 μM; the final concentration of the solvent dimethyl sulphoxide was 0.5%). The cells were incubated in the presence of the test substances for 4 days. The cell proliferation was determined by staining the cells with crystal violet: the cells were fixed by adding 20 μl/measurement point of an 11% strength glutaraldehyde solution at room temperature for 15 min. After the fixed cells had been washed three times with water, the plates were dried at room temperature. The cells were stained by adding 100 μl/measurement point of a 0.1% strength crystal violet solution (pH adjusted to pH 3 by adding acetic acid). After the stained cells had been washed three times with water, the plates were dried at room temperature. The dye was dissolved by adding 100 μl/measurement point of a 10% strength acetic acid solution, and the extinction was determined by photometry at a wavelength of 595 nm. The percentage change in cell growth was calculated by normalizing the measurements to the extinctions of the zero point plate (=0%) and the extinction of the untreated (0 μM) cells (=100%). The IC50 values were determined by means of a 4-parameter fit using the company's own software.

Row | SMILES | IC50 [1] | IC50 [2]
1 | C[C@@H](O)[C@@H](C)Nc1nc(Nc2ccc(Oc3ncccn3)cc2)ncc1Br [Example 34] | 0.49 µM | –
2 | C[C@@H](O)[C@@H](C)Oc1nc(Nc2ccc(Nc3ncc(Cl)c(NCCO)n3)cc2)ncc1Br [Example 21] | 0.18 µM | 0.091 µM
3 | C[C@@H](O)[C@@H](C)Oc1nc(Nc2ccc(Nc3nccc(OCCO)n3)cc2)ncc1Br [Example 8, (2R,3R)-3-(5-Bromo-2-{4-[4-(2-hydroxyethoxy)pyrimidin-2-ylamino]-phenylamino}pyrimidin-4-yloxy)butan-2-ol] | 0.2 µM | 0.03 µM
4 | C[C@@H](O)[C@@H](C)Nc1nc(Nc2ccc(Oc3cccnc3)cc2)ncc1Br [Example 33] | 0.38 µM | 0.27 µM
5 | C[C@@H](O)[C@@H](C)Oc1nc(Nc2ccc(Nc3ncc(Br)cn3)cc2)ncc1Br [Example 24] | 0.13 µM | 0.1 µM
6 | C[C@@H](O)[C@@H](C)Sc1nc(Nc2ccc(Nc3ncc(Cl)c(NCCO)n3)cc2)ncc1Br [Example 44] | 1 µM | > 3 µM
7 | C[C@@H](O)[C@@H](C)Oc1nc(Nc2ccc(Nc3ncccn3)cc2)ncc1Br [Example 15] | 0.14 µM | 0.089 µM
8 | Cc1cnc(Nc2ccc(Nc3ncc(Br)c(O[C@H](C)[C@@H](C)O)n3)cc2)nc1NCCO [Example 19] | 0.091 µM | 0.29 µM
9 | C[C@@H](O)[C@@H](C)Nc1nc(Nc2ccc(Sc3nncn3C)cc2)ncc1Br [Example 39] | 0.35 µM | –

Continued by falling IC50 [1], values first:

Row | IC50 [1] | IC50 [2] | SMILES
10 | 8.1 µM | > 3 µM | CSc1nc(Nc2ccc(Nc3ccccn3)cc2)ncc1Br [Example 29]
11 | 0.44 µM | 0.033 µM | C[C@@H](O)[C@@H](C)Oc1nc(Nc2cccc(Nc3nccc(OCCO)n3)c2)ncc1Br [Example 27]
12 | 0.34 µM | 0.27 µM | C[C@@H](O)[C@@H](C)Oc1nc(Nc2cccc(Nc3ncccn3)c2)ncc1Br [Example 25]
13 | 0.27 µM | 0.13 µM | COc1ccnc(Nc2ccc(Nc3ncc(Br)c(O[C@H](C)[C@@H](C)O)n3)cc2)n1 [Example 22]
14 | 0.1 µM | 0.098 µM | C[C@@H](O)[C@@H](C)Oc1nc(Nc2ccc(Nc3nccc(N(C)C)n3)cc2)ncc1Br [Example 17]
15 | 0.075 µM | 0.17 µM | C[C@@H](O)[C@@H](C)Oc1nc(Nc2ccc(Nc3nccc(NCCN(C)C)n3)cc2)ncc1Br [Example 18]
16 | 0.053 µM | 2 µM | CC(=O)NCCNc1nc(Nc2cccc(Nc3ncc(Br)c(NCCNC(C)=O)n3)c2)ncc1Br [Example 30]
17 | 0.042 µM | 0.42 µM | C[C@@H](O)[C@@H](C)Oc1nc(Nc2ccc(Nc3nccc(N)n3)cc2)ncc1Br [Example 16]
